Our source for the INH and inhibition values is ChEMBL document CHEMBL1154827, “Acetylcholinesterase inhibitory pyridine alkaloids of the leaves of Senna multijuga” (J Nat Prod, 2010).

Test [1] has as its target Acetylcholinesterase (Electrophorus electricus) (UniProt O42275). The test can be described thus: Inhibition of electric eel AChE assessed as purple zones of inhibition after 20 mins by TLC bioautography.
Test [2] has the same target. The test can be described thus: Inhibition of electric eel AChE at 350 […] by microplate assay.

Acetylcholinesterase (Electrophorus electricus), sequence (O42275 24-633 limits assumed): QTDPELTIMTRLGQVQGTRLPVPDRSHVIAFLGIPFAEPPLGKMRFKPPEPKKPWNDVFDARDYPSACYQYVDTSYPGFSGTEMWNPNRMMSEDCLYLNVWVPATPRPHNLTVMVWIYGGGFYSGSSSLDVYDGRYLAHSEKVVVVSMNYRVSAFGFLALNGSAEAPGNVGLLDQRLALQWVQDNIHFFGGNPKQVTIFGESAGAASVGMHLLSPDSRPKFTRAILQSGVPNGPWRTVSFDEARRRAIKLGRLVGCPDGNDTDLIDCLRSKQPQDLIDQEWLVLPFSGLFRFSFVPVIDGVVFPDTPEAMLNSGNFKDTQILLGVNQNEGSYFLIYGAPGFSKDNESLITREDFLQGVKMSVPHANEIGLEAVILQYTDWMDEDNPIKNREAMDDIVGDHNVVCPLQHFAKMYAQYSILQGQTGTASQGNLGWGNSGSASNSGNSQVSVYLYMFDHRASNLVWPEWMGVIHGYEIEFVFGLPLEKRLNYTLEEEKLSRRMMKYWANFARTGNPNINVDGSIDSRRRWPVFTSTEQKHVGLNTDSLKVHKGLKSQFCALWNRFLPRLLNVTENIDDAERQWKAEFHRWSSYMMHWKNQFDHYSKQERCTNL

`CCCCCC(=O)CCCCCCc1ccc(O)c(C)n1`: the INH in test [1] came out at 0.75 µg. The inhibition (usually the drop in the measured response relative to a control, in per cent) in test [2] came to 13%.
For `Cc1nc(CCCCCCC(=O)CCCCCO)ccc1O`, the INH in test [1] is 0.18 µg. Moreover, in test [2], the inhibition stood at 30%.
For the compound `C[C@@H]1O[C@@H](OC[C@H]2O[C@@H](Oc3c(-c4ccc(O)c(O)c4)oc4cc(O)cc(O)c4c3=O)[C@H](O)[C@@H](O)[C@@H]2O)[C@H](O)[C@H](O)[C@H]1O`, the INH in test [1] was greater than 100 µg.
Turning to `CNC(=O)Oc1ccc2c(c1)[C@]1(C)CCN(C)[C@@H]1N2C`, the INH in test [1] came out at 0.05 µg. Besides, in test [2], the inhibition worked out at 87%.
